The text below walks through data of patent publication US7615231B2, “Methods for enhancing the morphology, tone, texture and/or appearance of skin or hair using a meadowlactone” (Fan Tech, Ltd., priority 2005, dated 2009).

Data set [1] deals with skin. As to the kind of experiment: Initial use trials of skin creams containing the Meadowlactone. It is filed as in vivo.
A short description of data set [2]: Analytical results on purified Meadowlactone (stability). The data set is classed as physicochemical. An excerpt:
The purified Meadowlactone was identified and subsequently quantified by infrared spectroscopy and HPLC coupled with an evaporative light-scattering detector.

The nature of data set [3]: Solubility of the Meadowlactone as a function of pH in aqueous systems. The data set is classed as physicochemical. On the procedure: Solubility of the Meadowlactone as a function of pH was determined in aqueous systems.
In these experiments, 2 weight percent of Meadowlactone was mixed with water at room temperature. The pH of this mixture was varied, starting at an acidic pH and terminating at an alkaline pH. The clarity of the mixture was observed, and the mixture was photographed, at different pH levels (varying by one pH unit at a time).

For the compound `CCCCCCCCCCCCCCCC1CCCC(=O)O1` (stereo not shown) [Meadowlactone, Meadowfoam Delta Lactone], the skin moisturization result in data set [1] was “very effective”. In addition, in data set [2], the stability entry is on record as “extended stability”. Also, in data set [3] (2 weight percent in water at room temperature, pH varied from acidic to alkaline, clarity observed), the “oil / water solubility of the isomeric structures” value was “oil soluble”. In addition, the “forms present at the pH reported for human skin” value in data set [3] (pH from about 4.5 to about 5.5) was “both the Meadowlactone and the 5-hydroxy fatty acid exist together in equilibrium”.
